Source: patent US10793915B2, “Context dependent diagnostics test for guiding cancer treatment” (Eutropics Pharmaceuticals, Inc., priority 2015, dated 2020)

Experiments:
[1] = system: three suspension cancer cell lines; assay: PraediCare Dx FACS BH3 profiling with BH3 mimetic compound applied to permeabilized cells; assay type: cell-based; details: cell lines primed by NOXA
Source text: To further probe MCL-1 dependencies we explored the utility of certain BH3 mimetic compounds to provide an alternative to the NOXA readout to determine MCL-1 dependency in cancer cells. Our approach was to directly apply membrane permeable BH3 mimetic compounds that selectively target MCL1. Doing so would add the advantage of directly observing on target activity of the therapeutic agent.

[2] = system: AML blasts from patient peripheral blood or bone marrow; assay: BH3 profiling (mitochondrial profiling): JC-1 mitochondrial depolarization (% priming) of gated AML blasts exposed to BH3 peptides; assay type: cell-based, human; details: for Median CR (n = 23) / Median CR (n = 13): complete remission patients; for Median NR (n = 29) / Median NR (n = 18): non-responders
Protocol: Rows that are shaded grey are samples that failed the acceptance criteria of BH3 profiling during processing. […] Signal to noise is a measure of the DMSO JC-1 red mean fluorescence intensity (MFI) over the CCCP JC-1 read MFI. The cell counts and percent viability were determined by manual cell counting with trypan blue exclusion. Percent blasts are the percentages of CD45-dim, CD3/CD20 negative, and SSC-low of the permeabilized viable cells. All BH3 profiling was performed on those gated blast cells.
Briefly, frozen, extracted leukocyte samples were rapidly thawed, and cell viability was determined by Trypan Blue exclusion. Cells were washed in FACS buffer (1x PBS with 2% FBS) and immunophenotyped using fluorescently labeled CD45, CD3, and CD20 monoclonal antibodies. Cells were then resuspended in Newmeyer buffer (10 mM Trehalose, 10 mM HEPES, 80 mM KCl, 20 μM EGTA, 20 μM EDTA, 5 mM succinate, pH 7.4) for the perturbation step. The BH3 peptides were diluted in Newmeyer buffer to make working solutions resulting in final concentrations of: BIM (100 μM), BIM (0.1 μM), NOXA (100 μM), Puma (10 μM), HRK (100 μM), BAD (100 μM), and BID (1.0 μM). DMSO and CCCP were used as negative and positive peptide controls. Digitonin and oligomycin were added to individual FACS tubes, followed by the BH3 peptides. Cells were then added to the FACS tubes and incubated for 2 hours and 15 minutes at room temperature, in order for cell permeabilization, delivery of peptides or compounds, and mitochondrial depolarization to occur. After the incubation, JC-1 dye was prepared in Newmeyer buffer and added to directly to the treated cells. An additional tube of cells that was not treated with a peptide or compound was stained with propidium iodide (PI) to ensure that cells were effectively permeabilized by the digitonin. After 45 minutes of incubation with JC-1, cells were analyzed on a three laser BD FACSCanto II. AML Blasts were gated based on four parameters: 1) permeabilization (as determined by PI staining), 2) singlet discrimination based on SSC, 3) CD45 dim and CD3/CD20 negative, and 4) SSC low. The median JC-1 red fluorescence of the gated blast population was then used to calculate % depolarization as compared to DMSO (negative) and CCCP (positive) controls.
For each peptide, the percentage priming was calculated using the following formula that determines the priming based on the DMSO negative control as completely unprimed and the CCCP as a 100% primed reference:
For analysis, all patients not classified as CR were treated as non-responders [Minimal Residual Disease (MRD), Partial Remission (PR), and TF (treatment failure)]. Student's t-tests, Mann-Whitney rank-sum non-parametric tests, multi-variate logistic regression, and ROC curve analyses, between the BH3 peptides (and other tumor characteristics, such as cytogenetics, etc.) and response, were calculated using GraphPad Prism Version 5.04 and MedCalc Version 14.8.1.

[3] = Table 6, median percentage priming, all samples
[4] = Table 8, median percentage priming, bone marrow samples only
[5] = median percentage priming, bone marrow samples only

Compound	mitochondrial response to the compound (priming) [1]	Median CR (n = 23) [2, 3]	Median NR (n = 29) [2, 3]	Median CR (n = 13) [2, 4]	Median NR (n = 18) [2, 4]	median depolarization (priming) ([2]; all responses, all profiled patient samples)	NOXA priming in patients that did not respond ([2]; bone marrow samples only)	NOXA priming in patients that respond to treatment ([2]; bone marrow samples only)	Median CR (n = 23) ([2]; median percentage priming of blasts, all samples (blood and marrow))	Median NR (n = 29) ([2]; median percentage priming of blasts, all samples (blood and marrow), BIM 100/0.1 μM, NOXA 100 μM, Puma 10 μM, HRK 100 μM, BAD 100 μM, BID 1.0 μM)	Median CR (n = 13) [2, 5]	Median NR (n = 18) [2, 5]
CCN1CCN(C(c2ccc(C(F)(F)F)cc2)c2ccc3cccnc3c2O)CC1 (stereo not drawn) [EU5346]	responsive											
NOXA: NOXA BH3 peptide, 100 μM; in some aspects AELPPEFAAQLRKIGDKVYC (SEQ ID NO:1) (listed as Homo sapiens)		17.2	20.2	44.5	5.2	16.0%	5.2%	44.5%	17.2	20.2	44.5	5.2
